Test system: K86415-001-R-J1-PDC complex spheroids, viability
Experiment: Anticancer human tumor K86415-001-R-J1-PDC patient-derived lung adenocarcinoma cell line growth inhibition [RAS]
Conditions: for IC50: curve of first compound; for viability, T/C: stronger effect = lower value
How it was run: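 Tumour cells grown as complex spheroids with HUVEC endothelial cells and mesenchymal stem cells, treated with RAS pathway inhibitor combinations. Each agent spans half-log steps from near clinical Cmax, or 10 microM where Cmax is unknown.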
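Also: spheroids exposed to agents for seven days before readout.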

## C=CC(=O)Nc1cc(Nc2nccc(-c3cn(C)c4ccccc34)n2)c(OC)cc1N(C)CCN(C)C + CCn1c(-c2cccnc2C(C)OC)c2c3cc(ccc31)N1CCOC(CC(NC(=O)C(C(C)C)N(C)C(=O)C3(F)CCN(C(=O)C#CC(C)(C)N(C)C)CC3)C(=O)N3CCCC(N3)C(=O)OCC(C)(C)C2)C1
Second compound 0.000949 µM
  IC50: < 3.16 nM
Second compound 0.003 µM
  IC50: < 3.16 nM
Second compound 0.00949 µM
  IC50: < 3.16 nM
Second compound 0.03 µM
  IC50: < 3.16 nM
Second compound 0.0949 µM
  IC50: < 3.16 nM
Second compound 0.3 µM
  IC50: < 3.16 nM
Second compound 0.000949 µM, first compound 0.00316 µM
  viability, T/C: 34.5%
Second compound 0.000949 µM, first compound 0.01 µM
  viability, T/C: 31.8%
Second compound 0.000949 µM, first compound 0.0316 µM
  viability, T/C: 17%
Second compound 0.000949 µM, first compound 0.1 µM
  viability, T/C: 25.6%
Second compound 0.000949 µM, first compound 0.316 µM
  viability, T/C: 18.3%
Second compound 0.000949 µM, first compound 1 µM
  viability, T/C: 9.09%
Second compound 0.003 µM, first compound 0.00316 µM
  viability, T/C: 14.9%
Second compound 0.003 µM, first compound 0.01 µM
  viability, T/C: 11.9%
Second compound 0.003 µM, first compound 0.0316 µM
  viability, T/C: 10.1%
Second compound 0.003 µM, first compound 0.1 µM
  viability, T/C: 8.82%
Second compound 0.003 µM, first compound 0.316 µM
  viability, T/C: 6.15%
Second compound 0.003 µM, first compound 1 µM
  viability, T/C: 5.63%
Second compound 0.00949 µM, first compound 0.00316 µM
  viability, T/C: 11.9%
Second compound 0.00949 µM, first compound 0.01 µM
  viability, T/C: 11.1%
Second compound 0.00949 µM, first compound 0.0316 µM
  viability, T/C: 11.4%
Second compound 0.00949 µM, first compound 0.1 µM
  viability, T/C: 7.32%
Second compound 0.00949 µM, first compound 0.316 µM
  viability, T/C: 5.35%
Second compound 0.00949 µM, first compound 1 µM
  viability, T/C: 5.16%
Second compound 0.03 µM, first compound 0.00316 µM
  viability, T/C: 10.2%
Second compound 0.03 µM, first compound 0.01 µM
  viability, T/C: 11.1%
Second compound 0.03 µM, first compound 0.0316 µM
  viability, T/C: 9.36%
Second compound 0.03 µM, first compound 0.1 µM
  viability, T/C: 8.38%
Second compound 0.03 µM, first compound 0.316 µM
  viability, T/C: 5.05%
Second compound 0.03 µM, first compound 1 µM
  viability, T/C: 4.02%
Second compound 0.0949 µM, first compound 0.00316 µM
  viability, T/C: 12.5%
Second compound 0.0949 µM, first compound 0.01 µM
  viability, T/C: 11.2%
Second compound 0.0949 µM, first compound 0.0316 µM
  viability, T/C: 10.2%
Second compound 0.0949 µM, first compound 0.1 µM
  viability, T/C: 8.51%
Second compound 0.0949 µM, first compound 0.316 µM
  viability, T/C: 5.53%
Second compound 0.0949 µM, first compound 1 µM
  viability, T/C: 5.3%
Second compound 0.3 µM, first compound 0.00316 µM
  viability, T/C: 13.1%
Second compound 0.3 µM, first compound 0.01 µM
  viability, T/C: 11.4%
Second compound 0.3 µM, first compound 0.0316 µM
  viability, T/C: 11.9%
Second compound 0.3 µM, first compound 0.1 µM
  viability, T/C: 5.28%
Second compound 0.3 µM, first compound 0.316 µM
  viability, T/C: 5.37%
Second compound 0.3 µM, first compound 1 µM
  viability, T/C: 4.83%
